# Laboratory results published in patent US7285556B2, “Thienopyrimidine-based inhibitors of the src family” (Board of Regents, The University of Texas Systems, priority 2000, dated 2007).
# pIC50: −log10 of the molar value. Where two headings read alike, the source gives them in different places.
# Legend:
# Csk = target: T1, Csk (Homo sapiens, UniProt P41240); experiment: Csk tyrosine kinase activity, poly E4Y and 32P-ATP; format: biochemical
# T1 construct: GST (glutathione-S-transferase) (N); made in house; host or cells: E. coli (pGEX vector)
# Experimental: Recombinant human Src was expressed using the baculovirus-insect cell system and purified as published (Budde et al., 1993 and 2000). Recombinant Csk and the FGF receptor (FGFr) were expressed as glutathione-S-transferase fusion proteins using the pGEX expression vector and E. coli, and purified as described (Sun & Budde, 1995).
# The tyrosine kinase activity of Src, Csk and FGFr was determined using poly E4Y and ^32P-ATP. Briefly, enzymes were assayed in a reaction mixture consisting of 0.15 M EPPS-NaOH (pH 8.0) with 6 mM MgCl2, 0.2 mM γ^32P-ATP (0.2-0.4 mCi/μmol), 10% glycerol, 0.1% Triton X-100, and poly E4Y. Poly E4Y is a synthetic peptide whose phosphorylation is measured in this assay by the addition of the radioactively labeled phosphate from the ATP (Budde et al., 1995). […] When ATP was varied (0, 50, 100 and 250 μM), poly E4Y was kept constant at 150 μg/ml.
# Recombinant human Src = target: T2, Recombinant human Src (Homo sapiens, UniProt P12931); experiment: Src tyrosine kinase activity, poly E4Y and 32P-ATP; format: biochemical
# T2 construct: made in house; host or cells: baculovirus-insect cell system
# T2 sequence (P12931 whole entry): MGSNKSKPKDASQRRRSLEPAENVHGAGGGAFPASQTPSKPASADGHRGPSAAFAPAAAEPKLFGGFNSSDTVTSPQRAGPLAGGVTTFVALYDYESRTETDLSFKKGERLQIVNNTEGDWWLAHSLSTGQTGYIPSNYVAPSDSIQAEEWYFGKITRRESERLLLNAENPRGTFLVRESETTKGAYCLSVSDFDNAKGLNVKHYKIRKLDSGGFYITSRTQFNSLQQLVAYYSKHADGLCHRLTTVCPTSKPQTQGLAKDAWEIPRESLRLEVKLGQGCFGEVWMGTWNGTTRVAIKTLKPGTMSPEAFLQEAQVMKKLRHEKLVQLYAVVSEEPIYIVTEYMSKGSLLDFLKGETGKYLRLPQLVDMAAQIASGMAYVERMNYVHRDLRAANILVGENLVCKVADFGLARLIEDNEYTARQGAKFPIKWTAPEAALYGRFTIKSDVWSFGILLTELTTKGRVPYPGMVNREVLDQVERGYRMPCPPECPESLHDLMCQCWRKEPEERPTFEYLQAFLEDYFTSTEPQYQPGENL
# In short: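 Recombinant GST-Csk (E. coli) or baculovirus-expressed human Src assayed on poly E4Y in 0.15 M EPPS-NaOH pH 8.0, 6 mM MgCl2, 0.2 mM γ32P-ATP, 10% glycerol, 0.1% Triton X-100. Read-out is 32P incorporation into poly E4Y; for ATP variation (0–250 μM), poly E4Y held at 150 μg/ml.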
# [1] = screening assay, 50 μg/ml poly E4Y, 0.2 mM 32P-ATP
# [2] = Table 2, read-out: Src IC50 (especially good inhibitors of Src)
# [3] = read-out: IC50 (preferred compounds for treatment of Src family-related disease)
Compound,pIC50 (Csk; [1]),pIC50 (Recombinant human Src; [2]),pIC50 (Recombinant human Src; [3]),pIC50 (Csk; poly E4Y and 32P-ATP),"pIC50 (Recombinant human Src; screening assay, 50 μg/ml poly E4Y, 0.2 mM 32P-ATP, read-out: Src IC50)"
"COc1cccc(C=NNc2ncnc3c(C)csc23)c1 [Compound 137, 3-Methoxybenzaldehyde(7-methylthieno[3,2-d]pyrimidin-4-yl)hydrazone]",< 3.78,≥ 5.70,> 5.70,–,–
"Cc1ccc(C=NNc2ncnc3c(C)csc23)s1 [Compound 120, 5-Methyl-2-thiophenecarboxaldehyde(7-methylthieno[3,2-d]pyrimidin-4-yl)hydrazone]",< 3.76,≥ 5.70,> 5.70,–,–
"COc1cc(C=NNc2ncnc3c(C)csc23)ccc1O [Compound 53, 4-Hydroxy-3-methoxybenzaldehyde(7-methylthieno[3,2-d]pyrimidin-4-yl)hydrazone]",< 3.80,≥ 5.70,> 5.70,–,–
"COc1cc(C=NNc2ncnc3c(C)csc23)cc(OC)c1 [Compound 18, 3,5-Dimethoxybenzaldehyde(7-methylthieno[3,2-d]pyrimidin-4-yl)hydrazone]",< 3.82,≥ 5.70,> 5.70,–,–
"CCOc1cc(C=NNc2ncnc3c(C)csc23)ccc1O [Compound 50, 3-Ethoxy-4-hydroxybenzaldehyde(7-methylthieno[3,2-d]pyrimidin-4-yl)hydrazone]",< 3.82,≥ 5.70,> 5.70,–,–
"Cc1csc2c(NN=Cc3ccco3)ncnc12 [Compound 31, 2-Furancarboxaldehyde(7-methylthieno[3,2-d]pyrimidin-4-yl)hydrazone]",< 3.71,≥ 5.70,> 5.70,–,–
"COc1ccc(C=NNc2ncnc3c(C)csc23)cc1OC [Compound 17, 3,4-Dimethoxybenzaldehyde(7-methylthieno[3,2-d]pyrimidin-4-yl)hydrazone]",< 3.82,≥ 5.70,> 5.70,–,–
"Cc1csc2c(NN=Cc3ccncc3)ncnc12 [Compound 16, 4-Pyridinecarboxaldehyde(7-methylthieno[3,2-d]pyrimidin-4-yl)hydrazone]",< 3.73,≥ 5.70,> 5.70,–,–
"Cc1csc2c(NN=Cc3ccc(C#N)cc3)ncnc12 [Compound 121, 4-Cyanobenzaldehyde(7-methylthieno[3,2-d]pyrimidin-4-yl)hydrazone]",< 3.77,≥ 5.70,> 5.70,–,–
C(=NNc1ncnc2c(-c3ccsc3)csc12)c1cccnc1 [Compound 209],< 3.83,–,–,–,< 3.83
"Brc1cc2ncnc(NN=Cc3cccnc3)c2s1 [Compound 221, 3-Pyridinecarboxaldehyde(6-bromothieno[3,2-d]pyrimidin-4-yl)hydrazone]",< 3.83,≥ 5.70,> 5.70,–,–
"CCOc1cccc(C=NNc2ncnc3c(C)csc23)c1 [Compound 138, 3-Ethoxybenzaldehyde(7-methylthieno[3,2-d]pyrimidin-4-yl)hydrazone]",< 3.80,≥ 5.70,> 5.70,–,–
"Cc1csc2c(NN=Cc3ccsc3)ncnc12 [Compound 33, 3-Thiophenecarboxaldehyde(7-methylthieno[3,2-d]pyrimidin-4-yl)hydrazone]",< 3.74,≥ 5.70,> 5.70,–,–
"Fc1ccc(C=NNc2ncnc3cc(-c4ccccc4)sc23)cc1 [Compound 75, 4-Fluorobenzaldehyde(6-phenylthieno[3,2-d]pyrimidin-4-yl)hydrazone]",< 3.84,≥ 5.70,> 5.70,–,–
"Cc1csc2c(NN=Cc3cccc(F)c3)ncnc12 [Compound 52, 3-Fluorobenzaldehyde(7-methylthieno[3,2-d]pyrimidin-4-yl)hydrazone]",< 3.76,≥ 5.70,> 5.70,–,–

# The next lines start with the values.
pIC50 (Csk; [1]),pIC50 (Recombinant human Src; [2]),pIC50 (Recombinant human Src; [3]),pIC50 (Csk; poly E4Y and 32P-ATP),"pIC50 (Recombinant human Src; screening assay, 50 μg/ml poly E4Y, 0.2 mM 32P-ATP, read-out: Src IC50)",Compound
–,≥ 5.70,> 5.70,< 4.00,–,"COc1ccc(C=NNc2ncnc3c(C)c(C(Cc4ccccc4)c4ccccc4)sc23)cc1O (centres unmarked) [Compound 475, 3-Hydroxy-4-methoxybenzaldehyde(6-(1-benzyl-1-phenyl)methyl-7-methylthieno[3,2-d]pyrimidin-4-yl)hydrazone]"
< 3.94,≥ 5.70,> 5.70,–,–,"COc1ccc(C=NNc2ncnc3c(C)c(I)sc23)cc1O [Compound 375, 3-Hydroxy-4-methoxybenzaldehyde(6-iodo-7-methylthieno[3,2-d]pyrimidin-4-yl)hydrazone]"
< 3.88,≥ 5.70,> 5.70,–,–,"Cc1c(-c2ccc(CO)cc2)sc2c(NN=Cc3cccnc3)ncnc12 [Compound 436, 3-Pyridinecarboxaldehyde(6-(4-hydroxymethylphenyl)-7-methylthieno[3,2-d]pyrimidin-4-yl)hydrazone]"
< 3.88,≥ 5.70,> 5.70,–,–,"COc1cccc(-c2sc3c(NN=Cc4cccs4)ncnc3c2C)c1 [Compound 428, 2-Thiophenecarboxaldehyde(6-(3-methoxyphenyl)-7-methylthieno[3,2-d]pyrimidin-4-yl)hydrazone]"
< 3.88,≥ 5.70,> 5.70,–,–,"COc1cccc(-c2sc3c(NN=Cc4cccnc4)ncnc3c2C)c1 [Compound 426, 3-Pyridinecarboxaldehyde(6-(3-methoxyphenyl)-7-methylthieno[3,2-d]pyrimidin-4-yl)hydrazone]"
< 3.91,≥ 5.70,> 5.70,–,–,"COc1ccc(-c2cc3ncnc(NN=Cc4ccc(OC)c(O)c4)c3s2)cc1 [Compound 408, 3-Hydroxy-4-methoxybenzaldehyde(6-(4-methoxyphenyl)thieno[3,2-d]pyrimidin-4-yl)hydrazone]"
< 3.89,≥ 5.70,> 5.70,–,–,"Cc1c(-c2ccccc2Cl)sc2c(NN=Cc3cccs3)ncnc12 [Compound 391, 2-Thiophenecarboxaldehyde(6-(2-chlorophenyl)7-methylthieno[3,2-d]pyrimidin-4-yl)hydrazone]"
< 3.88,≥ 5.70,> 5.70,–,–,"Cc1c(-c2ccccc2Cl)sc2c(NN=Cc3cccnc3)ncnc12 [Compound 389, 3-Pyridinecarboxaldehyde(6-(2-chlorophenyl)7-methylthieno[3,2-d]pyrimidin-4-yl)hydrazone]"
< 3.89,≥ 5.70,> 5.70,–,–,"COc1ccc(C=NNc2ncnc3c(C)c(-c4ccccc4)sc23)cc1O [Compound 362, 3-Hydroxy-4-methoxybenzaldehyde(7-methyl-6-phenylthieno[3,2-d]pyrimidin-4-yl)hydrazone]"
< 3.88,≥ 5.70,> 5.70,–,–,"Ic1cc2ncnc(NN=Cc3cccnc3)c2s1 [Compound 394, 3-Pyridinecarboxaldehyde(6-iodothieno[3,2-d]pyrimidin-4-yl)hydrazone]"
< 3.85,≥ 5.70,> 5.70,–,–,"COc1ccc(C=NNc2ncnc3c2sc2ncccc23)cc1O [Compound 247, 3-Hydroxy-4-methoxybenzaldehyde(pyrido[3′,2′:4,5]thieno[3,2-d]pyrimidin-4-yl)hydrazone]"
< 3.77,≥ 5.70,> 5.70,–,–,"CCCc1csc2c(NN=Cc3cccnc3)ncnc12 [Compound 264, 3-Pyridinecarboxaldehyde(7-propylthieno[3,2-d]pyrimidin-4-yl)hydrazone]"
< 3.87,≥ 5.70,> 5.70,–,–,"Cc1c(/C=C/c2ccccc2)sc2c(NN=Cc3cccnc3)ncnc12 [Compound 447, 3-Pyridinecarboxaldehyde(7-methyl-6-(trans-2-phenylvinyl)-thieno[3,2-d]pyrimidin-4-yl)hydrazone]"
< 3.86,≥ 5.70,> 5.70,–,–,"Clc1ccccc1-c1cc2ncnc(NN=Cc3cccnc3)c2s1 [Compound 317, 3-Pyridinecarboxaldehyde(6-(2-chlorophenyl)thieno[3,2-d]pyrimidin-4-yl)hydrazone]"
< 3.92,≥ 5.70,> 5.70,–,–,"COc1ccc(-c2sc3c(NN=Cc4ccc(OC)c(O)c4)ncnc3c2C)cc1 [Compound 425, 3-Hydroxy-4-methoxybenzaldehyde(6-(4-methoxyphenyl)-7-methylthieno[3,2-d]pyrimidin-4-yl)hydrazone]"
< 3.88,≥ 5.70,> 5.70,–,–,"Cc1c(-c2cccc(CO)c2)sc2c(NN=Cc3cccs3)ncnc12 [Compound 442, 2-Thiophenecarboxaldehyde(6-(3-hydroxymethylphenyl)-7-methylthieno[3,2-d]pyrimidin-4-yl)hydrazone]"
< 3.92,≥ 5.70,> 5.70,–,–,"COc1ccc(C=NNc2ncnc3c(C)c(-c4ccc(CO)cc4)sc23)cc1O [Compound 439, 3-Hydroxy-4-methoxybenzaldehyde(6-(4-hydroxymethylphenyl)-7-methylthieno[3,2-d]pyrimidin-4-yl)hydrazone]"
